Results reported in US20070010581A1, “Use of 2,5-dihydroxybenzenesulfonic compounds for the treatment of disorders based on an impairment of no production and/or of regulation of edhf function” (priority 2002, published 2007).

Columns and labels:
[1] = test system: human penile resistance arteries (HPRA); assay: Vascular reactivity of resistance penile arteries (myograph, isometric tension)
Procedure: Penile small arteries, helicine arteries (lumen diameter 150-400 μm), which are the terminal branches of deep penile arteries, were dissected by carefully removing the adhering trabecular tissue, and arterial ring segments (of 2 mm length) were subsequently mounted on two 40 μm wires on microvascular double Halpern-Mulvany myographs (J.P. Trading, Aarhus, Denmark) for isometric tension recordings. The vascular segments were allowed to equilibrate for 30 min in physiological salt solution (PSS) of the following composition (each given in mM): 119 NaCl, 4.6 KCl; 1.5 CaCl2, 1.2 MgCl2, 24.9 NaHCO3, 11 Glucose, 1,2 KH2PO4, 0.027 EDTA in water at 37° C., continuously bubbled with a 95% O2/5% CO2 mixture to maintain a pH of 7.4. Passive tension and internal circumference of the vascular segments when relaxed in situ under a transmural pressure of […] (L100) were determined. The vascular segments were then set to an internal circumference eqivalent to 90% of L100, at which the force development was dose to maximal as described in Mulvany M J, Halpem W., “Contractile properties of small resistance arteries in spontaneously hypertensive and normotensive rats”, Circ. Res., 41, 19-26, 1977. The respective literature description is incorporated by reference and is part of the disclosure. The preparations were then exposed to 125 mM K^+ (KPSS, equimolar substitution of NaCl for KCl in PSS) and the contractile response was measured. The arteries were contracted with 1 μm norepinephrine (approximately 80% of KPSS induced contraction) and relaxation responses were evaluated by cumulative additions of compounds to the chambers.
Relaxation responses are expressed as percentage of total relaxation (loss in tone) induced by the addition of 0.1 mM papaverine HCl to the chambers at the end of the experiment. All data are expressed as mean±standard error. Complete concentration-response or frequency-response curves were obtained and compared by a two-factor analysis of variance (ANOVA) statistical test using StatView sotfware for Apple computers. Erectile responses were determined by measuring the area under the curve (AUC) of the intracavemosal pressure increases to rat cavernosal nerve stimulation normalized by mean arterial pressure values. The complete frequency-response curves were compared by a two-factor ANOVA test.

[2] = test system: erectile responses (intracavernosal pressure) to cavernosal nerve stimulation; assay: Erectile responses to cavernosal nerve stimulation in anesthetized rats; format: in vivo, rat; settings: intravenous 10 mg/kg, stimulation 60 min after administration
Procedure: Male Sprague-Dawley rats were anesthetized with ketamine (60 mg/kg). The surgical procedure consisted of dissection and isolation of the right cavernous nerve through an abdominal midline incision and exposure of penile crura through a transverse perineal incision. Intracavemosal pressure (ICP) measurements were accomplished by insertion into the right crus of a 23-gauge needle connected to a disposable pressure transducer (Abbott, Sligo, Ireland) and a data acquisition system (ADInstruments, Castle Hill, Australia). Left carotid artery and right external jugular vein were catheterized for constant blood pressure measurement and saline or drug infusion, respectively. Electrical stimulation was applied by a delicate platinum bipolar hook electrode connected to a stimulator and current amplifier (Cibertec, Madrid, Spain). Parameters of electrical stimulation consisted of pulses with a duration of 1 ms and 1.5 mA of current intensity for 1 minute. […]
Relaxation responses are expressed as percentage of total relaxation (loss in tone) induced by the addition of 0.1 mM papaverine HCl to the chambers at the end of the experiment. All data are expressed as mean±standard error. […] Erectile responses were determined by measuring the area under the curve (AUC) of the intracavemosal pressure increases to rat cavernosal nerve stimulation normalized by mean arterial pressure values. […]

O=S(=O)(O)c1cc(O)ccc1O [calcium dobesilate, calcium dihydroxy-2,5 benzenesulfonate]
effect on ACh-induced relaxation of HPRA ([1]; calcium dobesilate 10 μM): markedly potentiated
potentiation of ACh-induced relaxation of HPRA under combined inhibition of NOS and COX ([1]; calcium dobesilate 10 μM, combined inhibition of NOS and COX): not significantly affected
potentiation of ACh-induced relaxation of HPRA at high potassium concentration ([1]; calcium dobesilate 10 μM, high potassium concentration (35 mM)): abolished
potentiating effects on ACh-induced relaxation of HPRA with APA and CTX ([1]; combination of APA (100 nM) and CTX (100 nM)): abolished the potentiating effects
potentiating effects on ACh-induced relaxation of HPRA resistant to NOS and COX inhibition, with miconazole ([1]; miconazole (0.3 mM)): significantly reduced the potentiating effects
erectile responses to cavernosal nerve stimulation [2]: significantly enhanced the erectile responses
